Test results from PubChem BioAssay AID1963834 (Molecular Pharmacology Branch, DTP, NCI, 2024).

Test system: 873145-292-R-J1-PDC complex spheroid viability
Assay: Anticancer human tumor 873145-292-R-J1-PDC patient-derived renal clear cell carcinoma cell line growth inhibition [POLQ]
Settings: for IC50: curve of first compound; for viability, T/C: stronger effect = lower value
In short: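 Growth inhibition in 3D: complex spheroids (tumor PDC, HUVEC, MSC) treated with POLQ inhibitor combinations; where Cmax unknown, highest tested concentration 10 microM, except SN-38 at 1 microM.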
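Further: spheroids exposed to compounds for 7 days before viability readout.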
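Wherever viability, T/C is given: luminescence signal used as surrogate for viable cell content; 100% = DMSO vehicle control viability.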

CC(=O)O[C@H]1C(=O)[C@@]2(C)[C@H]([C@H](OC(=O)c3ccccc3)[C@]3(O)C[C@H](OC(=O)[C@H](O)[C@@H](NC(=O)c4ccccc4)c4ccccc4)C(C)=C1C3(C)C)[C@]1(OC(C)=O)CO[C@@H]1C[C@@H]2O + Cc1cccc(N(C)C(=O)C2C(O)CCN2c2nc(C)cc(C(F)(F)F)c2C#N)c1
IC50 (second compound 0.0316 µM): > 3000 nM
IC50 (second compound 0.1 µM): > 3000 nM
IC50 (second compound 0.316 µM): > 3000 nM
IC50 (second compound 1 µM): > 3000 nM
IC50 (second compound 3.16 µM): > 3000 nM
IC50 (second compound 10 µM): > 3000 nM
viability, T/C (second compound 0.0316 µM, first compound 0.00949 µM): 92.4%
viability, T/C (second compound 0.0316 µM, first compound 0.03 µM): 75.9%
viability, T/C (second compound 0.0316 µM, first compound 0.0949 µM): 74.7%
viability, T/C (second compound 0.0316 µM, first compound 0.3 µM): 69.1%
viability, T/C (second compound 0.0316 µM, first compound 0.949 µM): 72.8%
viability, T/C (second compound 0.0316 µM, first compound 3 µM): 74.9%
viability, T/C (second compound 0.1 µM, first compound 0.00949 µM): 92%
viability, T/C (second compound 0.1 µM, first compound 0.03 µM): 99%
viability, T/C (second compound 0.1 µM, first compound 0.0949 µM): 67%
viability, T/C (second compound 0.1 µM, first compound 0.3 µM): 77.7%
viability, T/C (second compound 0.1 µM, first compound 0.949 µM): 68.6%
viability, T/C (second compound 0.1 µM, first compound 3 µM): 66.3%
viability, T/C (second compound 0.316 µM, first compound 0.00949 µM): 94.5%
viability, T/C (second compound 0.316 µM, first compound 0.03 µM): 82.4%
viability, T/C (second compound 0.316 µM, first compound 0.0949 µM): 76.2%
viability, T/C (second compound 0.316 µM, first compound 0.3 µM): 74.1%
viability, T/C (second compound 0.316 µM, first compound 0.949 µM): 76.5%
viability, T/C (second compound 0.316 µM, first compound 3 µM): 70.3%
viability, T/C (second compound 1 µM, first compound 0.00949 µM): 79.7%
viability, T/C (second compound 1 µM, first compound 0.03 µM): 84.3%
viability, T/C (second compound 1 µM, first compound 0.0949 µM): 81.8%
viability, T/C (second compound 1 µM, first compound 0.3 µM): 77.8%
viability, T/C (second compound 1 µM, first compound 0.949 µM): 73.3%
viability, T/C (second compound 1 µM, first compound 3 µM): 69.3%
viability, T/C (second compound 3.16 µM, first compound 0.00949 µM): 84.7%
viability, T/C (second compound 3.16 µM, first compound 0.03 µM): 85.6%
viability, T/C (second compound 3.16 µM, first compound 0.0949 µM): 72.5%
viability, T/C (second compound 3.16 µM, first compound 0.3 µM): 71.5%
viability, T/C (second compound 3.16 µM, first compound 0.949 µM): 80.3%
viability, T/C (second compound 3.16 µM, first compound 3 µM): 80.4%
viability, T/C (second compound 10 µM, first compound 0.00949 µM): 75.4%
viability, T/C (second compound 10 µM, first compound 0.03 µM): 80.3%
viability, T/C (second compound 10 µM, first compound 0.0949 µM): 75.8%
viability, T/C (second compound 10 µM, first compound 0.3 µM): 65.9%
viability, T/C (second compound 10 µM, first compound 0.949 µM): 75.6%
viability, T/C (second compound 10 µM, first compound 3 µM): 71.2%

CC[C@@]1(O)C(=O)OCc2c1cc1n(c2=O)Cc2cc3c(CN(C)C)c(O)ccc3nc2-1 + Cc1cccc(N(C)C(=O)C2C(O)CCN2c2nc(C)cc(C(F)(F)F)c2C#N)c1
IC50 (second compound 0.0316 µM): > 100 nM
IC50 (second compound 0.1 µM): > 100 nM
IC50 (second compound 0.316 µM): 92.2 nM
IC50 (second compound 1 µM): > 100 nM
IC50 (second compound 3.16 µM): > 100 nM
IC50 (second compound 10 µM): > 100 nM
viability, T/C (second compound 0.0316 µM, first compound 0.000316 µM): 105%
viability, T/C (second compound 0.0316 µM, first compound 0.001 µM): 95.2%
viability, T/C (second compound 0.0316 µM, first compound 0.00316 µM): 89.6%
viability, T/C (second compound 0.0316 µM, first compound 0.01 µM): 104%
viability, T/C (second compound 0.0316 µM, first compound 0.0316 µM): 73.7%
viability, T/C (second compound 0.0316 µM, first compound 0.1 µM): 52.5%
viability, T/C (second compound 0.1 µM, first compound 0.000316 µM): 93.3%
viability, T/C (second compound 0.1 µM, first compound 0.001 µM): 101%
viability, T/C (second compound 0.1 µM, first compound 0.00316 µM): 97.8%
viability, T/C (second compound 0.1 µM, first compound 0.01 µM): 101%
viability, T/C (second compound 0.1 µM, first compound 0.0316 µM): 74.4%
viability, T/C (second compound 0.1 µM, first compound 0.1 µM): 52.2%
viability, T/C (second compound 0.316 µM, first compound 0.000316 µM): 94.9%
viability, T/C (second compound 0.316 µM, first compound 0.001 µM): 113%
viability, T/C (second compound 0.316 µM, first compound 0.00316 µM): 96.8%
viability, T/C (second compound 0.316 µM, first compound 0.01 µM): 97.3%
viability, T/C (second compound 0.316 µM, first compound 0.0316 µM): 78.7%
viability, T/C (second compound 0.316 µM, first compound 0.1 µM): 47.8%
viability, T/C (second compound 1 µM, first compound 0.000316 µM): 101%
viability, T/C (second compound 1 µM, first compound 0.001 µM): 98.9%
viability, T/C (second compound 1 µM, first compound 0.00316 µM): 87.9%
viability, T/C (second compound 1 µM, first compound 0.01 µM): 104%
viability, T/C (second compound 1 µM, first compound 0.0316 µM): 75%
viability, T/C (second compound 1 µM, first compound 0.1 µM): 59.2%
viability, T/C (second compound 3.16 µM, first compound 0.000316 µM): 89.6%
viability, T/C (second compound 3.16 µM, first compound 0.001 µM): 91.5%
viability, T/C (second compound 3.16 µM, first compound 0.00316 µM): 92.8%
viability, T/C (second compound 3.16 µM, first compound 0.01 µM): 97.8%
viability, T/C (second compound 3.16 µM, first compound 0.0316 µM): 78%
viability, T/C (second compound 3.16 µM, first compound 0.1 µM): 63.9%
viability, T/C (second compound 10 µM, first compound 0.000316 µM): 93.4%
viability, T/C (second compound 10 µM, first compound 0.001 µM): 95.2%
viability, T/C (second compound 10 µM, first compound 0.00316 µM): 94.5%
viability, T/C (second compound 10 µM, first compound 0.01 µM): 98.8%
viability, T/C (second compound 10 µM, first compound 0.0316 µM): 81.8%
viability, T/C (second compound 10 µM, first compound 0.1 µM): 54.5%
